# In US8975250B2, “5 oxo-5,8-dihydropyrido[2,3-d]pyrimidine derivatives as CaMKII kinase inhibitors for treating cardiovascular diseases” (SANOFI, priority 2010, dated 2015):
# Target: CaMKIIδ (Homo sapiens (Human), UniProt Q13557)
# Experiment: radioactive test on the recombinant CaMKIIδ enzyme (ATP-γ33P incorporation into Autocamtide-2)
# Assay type: biochemical
# Settings: recombinant CaMKIIδ 0.37 nM, 10 μM ATP, 100 μM Autocamtide-2, two hours at 37°C
# Experimental: The compounds according to the invention were tested in vitro for their capacity to inhibit the kinase function of calcium/calmodulin-dependent protein kinase II delta (CaMKIIδ). CaMKIIδis an intracellular serine/threonine kinase. It has an enzymatic domain that is capable of using ATP to autophosphorylate. Its kinase function allows it to use ATP to phosphorylate its substrates on the serines and/or threonines. Several enzymatic and cellular tests are used to evaluate the activity of the products with respect to the kinase function of CaMKIIδ. The kinase activity of CaMKIIδis evaluated by means of a radioactive test on the recombinant CaMKIIδenzyme. The amount of ATP-γ33P incorporated into the specific substrate Autocamtide-2 during its phosphorylation by CaMKIIδis measured. The effect of the products is quantified by the concentration of product that inhibits the total activity of CaMKIIδby 50% (50% inhibitory concentration=IC50). For the determination of the IC50 values, the product is diluted in 100% of DMSO to obtain a 10 mM stock solution. The concentration range tested during the radioactive test ranges from 3 to 10 000 nM with a final concentration in the test of 1% DMSO. This concentration range may, for the most powerful compounds, be extended to 0.1 nM. On the day of the operation, 5 μl of the compounds are deposited in each well of a 96-well plate at 10 times the concentration of that to be tested. Each concentration is tested in duplicate on the same plate. The negative controls (0% activity) and positive controls (100% activity) receive 5 μL of 10% DMSO solution. A reaction premix containing the 1×kinase buffer and an ATP-MgCl2 mixture is prepared. Extemporaneously, a mixture containing the substrate Autocamtide-2 (100 μM) with calmodulin and calcium, and the solution of enzyme CaMKIIδ, is added to the premix. 45 μL of this mixture are immediately deposited per well. The final concentrations in the 50 μL final volume are as follows: compound 1X, 0.37 nM of CaMKIIδ(Invitrogen reference PV3373), 10 μM of ATP (1 μCi per well), 100 μM of Autocamtide-2, […] of calmodulin, 15 mM MgCl2, 400 μM CaCl2, 10 mM β-glycerophosphate, and 1% of DMSO. Two negative controls are prepared on each plate, a first without enzyme CaMKIIδ, and a second without substrate Autocamtide-2; these two elements are replaced with water. The plate is then incubated for two hours at 37°C. with gentle shaking. The reaction is stopped by adding 20 μL per well of H3PO4 solution. The 50 μL of each well are transferred onto a Whatman P81 filter. After rinsing twice with H3PO4 (150 μl/well per wash), followed by two rinses with 150 μL of H2O, 50 μL of scintillant are added per well. The amount of phosphorylated substrate is detected by means of a liquid scintillation counter. The inhibitory activity toward CaMKIIδis given by the concentration that inhibits 50% of the activity of CaMKIIδ. The IC50 values are generally between 10 μM and 10^−5 μM. In the table below, the IC50 values measured for several compounds (I) of the invention are presented as examples.
row,Structure (SMILES),IC50
1,"CCn1c(N)c(C(N)=O)c(=O)c2cnc(Nc3ccc(C4CCN(CCC(F)(F)F)CC4)cc3OC)nc21 [compound 35, 7-Amino-8-ethyl-2-{2-methoxy-4-[1-(3,3,3-trifluoropropyl)piperid-4-yl]phenylamino}-5-oxo-5,8-dihydropyrido[2,3-d]pyrimidine-6-carboxamide]",0.022 µM
2,"CCn1c(N)c(C(N)=O)c(=O)c2cnc(Nc3ccc(OC4CCN(C)CC4)cc3)nc21 [compound 76, 7-Amino-8-ethyl-2-[4-(1-methylpiperid-4-yloxy)phenylamino]-5-oxo-5,8-dihydropyrido[2,3-d]pyrimidine-6-carboxamide]",0.118 µM
3,"CCn1c(N)c(C(N)=O)c(=O)c2cnc(Nc3ccc(C(=O)N4CCN(C)CC4)cc3)nc21 [compound 4, 7-Amino-8-ethyl-2-[4-(4-methylpiperazine-1-carbonyl)phenylamino]-5-oxo-5,8-dihydropyrido[2,3-d]pyrimidine-6-carboxamide]",0.26 µM
